Assay results taken from PMC9454848, “BMS-986158, a Small Molecule Inhibitor of the Bromodomain and Extraterminal Domain Proteins, in Patients with Selected Advanced Solid Tumors: Results from a Phase 1/2a Trial” (Cancers, 2022).
“And” between values parts separate entries of the source, which are not always exact repeats. Identical values can stand only once. Marks after values point to notes of the source that are not given here.

System: patients with advanced solid tumors
Test: Treatment-related adverse events and dose-limiting toxicities, phase 1/2a trial CA011-001
Type: in vivo
Experimental: CA011-001 was an open-label study of BMS-986158 monotherapy. Part 1 of the study included a dose-escalation segment and Part 2 was a dose-expansion phase. In Part 1, escalation occurred with an initial dose of BMS-986158 and increased in prespecified increments above the previous dose level until the first occurrence of any protocol-defined dose-limiting toxicity (DLT). Overall, 3 dosing schedules were evaluated to test safety and efficacy (Supplemental Figure S1). Each patient on schedules A, B, and C was administered a single oral dose of BMS-986158 on cycle 1 day 1 (C1D1), and no additional doses were administered until cycle 2 day 1 (C2D1; ≈7 days after C1D1). Beginning on C2D1 and for each subsequent cycle, patients received treatment according to the following schedules. On schedule A, BMS-986158 was administered once daily (QD) for 5 days on and 2 days off with 0.75-, 1.25-, 2.0-, 3.0-, and 4.5-mg escalating doses. On schedule B, patients received BMS-986158 QD for 14 days on and 7 days off with 2.0- and 3.0-mg doses. On schedule C, BMS-986158 QD was given for 7 days on and 14 days off with 2.0-, 3.0-, and 4.5-mg doses. Dose escalation was guided by a modified toxicity probability interval (mTPI) design. In the mTPI design, 3 to 4 patients would be enrolled at each dose level; if a DLT was observed, an additional 3 to 4 patients would be evaluated at the same dose level, up to a total of 13 patients. If no DLTs occurred, 3 to 4 patients would be enrolled at the next dose level. The target DLT rate was 27% to determine the maximum tolerated dose (MTD). For Part 2 of this trial (the dose-expansion phase), schedule A dosing was selected based on safety, pharmacodynamics, and PK data collected in Part 1. The dosing regimen for Part 2 was 4.5 mg for 2 weeks (10 doses) followed by 3.75 mg for the remainder of treatment. However, because study CA011-001 was terminated early with 1 patient enrolled in Part 2, we have grouped this patient with the schedule A, 4.5-mg cohort in Part 1 for the remainder of this report.
Safety was assessed as adverse events (AEs) coded by the Medical Dictionary for Regulatory Activities version 24.0 and the National Cancer Institute’s Common Terminology Criteria for Adverse Events version 4.03. In addition, AEs were classified by whether they were considered possibly or probably treatment related (TRAEs) by investigator assessment, qualified as a serious AE, or led to interruption or discontinuation of study therapy.
All treated patients who received ≥1 dose of BMS-986158 were evaluated in the safety population. […] All treated patients with available and sufficient serum or plasma samples for the corresponding analytes were included in the PK analyses. […] ECG parameters were evaluated in a categorical analysis, and linear mixed-effects regression modeling was used to describe the quantitative relationship between ΔQTcF and time-matched serum concentrations of BMS-986158 or its metabolite at a single dose.
Descriptive summary statistics, including means and 95% CIs, were calculated using the Clopper-Pearson method for ORR and Kaplan–Meier method for PFS and OS. During dose escalation, an mTPI design targeted a 27% DLT rate to guide escalation decisions and the MTD selection. In the dose-escalation segment, the target enrollment was up to 30 patients per schedule and 3–13 DLT-evaluable patients at a dose level, with an aim to determine the MTD. The totality of the data, including PK, pharmacodynamics, and patient overall safety, including at lower dose levels, was also used to select the RP2D.

[1] = Schedule A (5 days on, 2 days off), n = 46
[2] = Schedule B (14 days on, 7 days off), n = 8
[3] = Schedule C (7 days on, 14 days off), n = 29

## Cc1nnn(C)c1-c1cnc2c3ccc(C(C)(C)O)cc3n([C@H](c3ccccc3)C3CCOCC3)c2c1 [BMS-986158]
1 patient, schedule A group at the 4.5-mg dose, of all patients
  Treatment discontinuation due to a TRAE (grade 3 myocardial infarction): 1.2%
Schedule A (5 days on, 2 days off)
  Incidence of TRAEs: 72% and 71.7%
[1]
  Anemia (TRAE), any grade: 6 (13.0) n (%)
  Anemia (TRAE), grade ≥ 3: 2 (4.3) n (%)
  Decreased appetite (TRAE), any grade: 5 (10.9) n (%)
  Decreased appetite (TRAE), grade ≥ 3: 0 n (%)
  Diarrhea (TRAE), any grade: 19 (41.3) n (%)
  Diarrhea (TRAE), grade ≥ 3: 0 n (%)
  Discontinuations due to TRAEs, any grade: 1 (2.2) ^d n (%)
  Discontinuations due to TRAEs, grade ≥ 3: 1 (2.2) ^d n (%)
  Fatigue (TRAE), any grade: 8 (17.4) n (%)
  Fatigue (TRAE), grade ≥ 3: 2 (4.3) n (%)
  Nausea (TRAE), any grade: 7 (15.2) n (%)
  Nausea (TRAE), grade ≥ 3: 1 (2.2) n (%)
  Patients with any TRAE, any grade: 33 (71.7) n (%)
  Patients with any TRAE, grade ≥ 3: 19 (41.3) n (%)
  Serious TRAEs, any grade: 3 (6.5) ^a,d n (%)
  Serious TRAEs, grade ≥ 3: 3 (6.5) ^a,d n (%)
  Thrombocytopenia (TRAE), any grade: 20 (43.5) n (%)
  Thrombocytopenia (TRAE), grade ≥ 3: 16 (34.8) n (%)
  Vomiting (TRAE), any grade: 5 (10.9) n (%)
  Vomiting (TRAE), grade ≥ 3: 0 n (%)
Schedule A, 2.0 mg
  DLT grade 4 thrombocytopenia: 1/13
Schedule A, 3.0 mg
  DLT grade 4 thrombocytopenia: 1/10
Schedule A, 4.5 mg
  DLT grade 4 thrombocytopenia: 2/13
Schedule A, 3 of 46 patients
  Serious TRAEs, incidence: 6.5%
[2]
  Anemia (TRAE), any grade: 2 (25.0) n (%)
  Anemia (TRAE), grade ≥ 3: 2 (25.0) n (%)
  Decreased appetite (TRAE), any grade: 4 (50.0) n (%)
  Decreased appetite (TRAE), grade ≥ 3: 0 n (%)
  Diarrhea (TRAE), any grade: 4 (50.0) n (%)
  Diarrhea (TRAE), grade ≥ 3: 0 n (%)
  Discontinuations due to TRAEs, any grade: 0 n (%)
  Discontinuations due to TRAEs, grade ≥ 3: 0 n (%)
  Fatigue (TRAE), any grade: 4 (50) n (%)
  Fatigue (TRAE), grade ≥ 3: 1 (12.5) n (%)
  Incidence of TRAEs: 100%
  Nausea (TRAE), any grade: 1 (12.5) n (%)
  Nausea (TRAE), grade ≥ 3: 1 (12.5) n (%)
  Patients with any TRAE, any grade: 8 (100.0) n (%)
  Patients with any TRAE, grade ≥ 3: 4 (50.0) n (%)
  Serious TRAEs, any grade: 2 (25.0) ^b n (%)
  Serious TRAEs, grade ≥ 3: 2 (25.0) ^b n (%)
  Thrombocytopenia (TRAE), any grade: 5 (62.5) n (%)
  Thrombocytopenia (TRAE), grade ≥ 3: 2 (25.0) n (%)
  Vomiting (TRAE), any grade: 2 (25.0) n (%)
  Vomiting (TRAE), grade ≥ 3: 1 (12.5) n (%)
Schedule B, 3.0 mg
  DLT grade 4 thrombocytopenia: 2/4
Schedule B, 2 of 8 patients
  Serious TRAEs, incidence: 25.0%
Schedule C (7 days on, 14 days off)
  Incidence of TRAEs: 72% and 72.4%
[3]
  Anemia (TRAE), any grade: 4 (13.8) n (%)
  Anemia (TRAE), grade ≥ 3: 1 (3.4) n (%)
  Decreased appetite (TRAE), any grade: 3 (10.3) n (%)
  Decreased appetite (TRAE), grade ≥ 3: 0 n (%)
  Diarrhea (TRAE), any grade: 13 (44.8) n (%)
  Diarrhea (TRAE), grade ≥ 3: 0 n (%)
  Discontinuations due to TRAEs, any grade: 0 n (%)
  Discontinuations due to TRAEs, grade ≥ 3: 0 n (%)
  Fatigue (TRAE), any grade: 4 (13.8) n (%)
  Fatigue (TRAE), grade ≥ 3: 0 n (%)
  Nausea (TRAE), any grade: 6 (20.7) n (%)
  Nausea (TRAE), grade ≥ 3: 0 n (%)
  Patients with any TRAE, any grade: 21 (72.4) n (%)
  Patients with any TRAE, grade ≥ 3: 5 (17.2) n (%)
  Serious TRAEs, any grade: 0 n (%)
  Serious TRAEs, grade ≥ 3: 0 n (%)
  Thrombocytopenia (TRAE), any grade: 7 (24.1) n (%)
  Thrombocytopenia (TRAE), grade ≥ 3: 3 (10.3) n (%)
  Vomiting (TRAE), any grade: 3 (10.3) n (%)
  Vomiting (TRAE), grade ≥ 3: 1 (3.4) n (%)
Schedule C cohort (n = 29)
  Serious TRAEs: no serious TRAEs were reported
Schedule C, 4.5 mg
  DLT grade 4 thrombocytopenia: 2/10
Total, N = 83
  Anemia (TRAE), any grade: 12 (14.5) n (%)
  Anemia (TRAE), grade ≥ 3: 5 (6.0) n (%)
  Decreased appetite (TRAE), any grade: 12 (14.5) n (%)
  Decreased appetite (TRAE), grade ≥ 3: 0 n (%)
  Diarrhea (TRAE), any grade: 36 (43.4) n (%)
  Diarrhea (TRAE), grade ≥ 3: 0 n (%)
  Discontinuations due to TRAEs, any grade: 1 (1.2) ^d n (%)
  Discontinuations due to TRAEs, grade ≥ 3: 1 (1.2) ^d n (%)
  Fatigue (TRAE), any grade: 16 (19.3) n (%)
  Fatigue (TRAE), grade ≥ 3: 3 (3.6) n (%)
  Nausea (TRAE), any grade: 14 (16.9) n (%)
  Nausea (TRAE), grade ≥ 3: 2 (2.4) n (%)
  Patients with any TRAE, any grade: 62 (74.7) n (%)
  Patients with any TRAE, grade ≥ 3: 28 (33.7) n (%)
  Serious TRAEs, any grade: 5 (6.0) ^c,d n (%)
  Serious TRAEs, grade ≥ 3: 5 (6.0) ^c,d n (%)
  Thrombocytopenia (TRAE), any grade: 32 (38.6) n (%)
  Thrombocytopenia (TRAE), grade ≥ 3: 21 (25.3) n (%)
  Vomiting (TRAE), any grade: 10 (12.0) n (%)
  Vomiting (TRAE), grade ≥ 3: 2 (2.4) n (%)
All patients
  Anemia as any-grade TRAE, incidence: 14.5%
  Decreased appetite as any-grade TRAE, incidence: 14.5%
  Fatigue as any-grade TRAE, incidence: 19.3%
  Nausea as any-grade TRAE, incidence: 16.9%
  Thrombocytopenia as grade ≥ 3 TRAE, incidence: 25.3%
  Vomiting as any-grade TRAE, incidence: 12.0%
All patients, any grade
  Thrombocytopenia as TRAE, incidence: 39% and 38.6%
All treatment schedule cohorts, 83 patients, any grade
  Diarrhea as TRAE, incidence: 43% and 43.4%
Among 83 patients, all in part 1
  Patients who experienced DLTs: 9
Of 4 patients, Schedule B, 2.0-mg cohort
  Patients with grade 3 nausea as a DLT: 1
Overall study population, 5 of 83 patients
  Serious TRAEs, incidence: 6%
